Results reported in US9732068B1, “System for crystalizing chemical compounds and methodologies for utilizing the same” (GenSyn Technologies, Inc., priority 2013, dated 2017).

Assay: Particle size measurement of crystallized compound with Horiba L950 particle size analyzer
Type: physicochemical
Settings: for Span: Span=(D90-D10)/D50; for median particle size: final solution after crystallization in system 10
Excerpt: Just as importantly as desirable small particle sizes is uniformity of particle size distributions (i.e., described by “D values”). D values of “D10”, “D50” and “D90” may be used to represent the midpoint and range of particle sizes of a given sample. The D10 particle size is the diameter at which 10% of a sample's mass is comprised of smaller particles. The D50 is the “mass median diameter” as it divides the sample equally by mass. The D90 particle size is the diameter at which 90% of a sample's mass is comprised of smaller particles.
System 10 of the present invention enables the production of customized particles within a narrow range of particle sizes. A common value used to express the uniformity of particle size distribution is the “span”. The span is a measure of how wide of a spectrum of particle sizes is produced. A system with a low relative span is desirable as it will produce more uniform distribution of particle sizes. Span can be calculated with the equation below: Span=(D90−D10)/D50.
Two grams of Paracetomol was dissolved in 100 grams of ethanol. Two grams of Soy Lecithin was dissolved in 50 grams of tetrahydrofuran (THF). The two solutions were combined and heated to 60° C. The solution was added to the input hopper of a dual piston pump 241. The pump 241 was fed into fluid input conduit 121 of the crystallization chamber 22 through a 0.006″ opening 701 of a nozzle 581. Heptane, at 10° C. was fed into fluid input conduits 122, 123 and 124 through 0.006″, 0.008″ and 0.008″ openings 702, 703, and 704 of nozzles 582, 583, and 584 respectively by an identical piston pump 242. The pressure on both pumps 241 and 242 was adjusted to 1000 psi. The mixed streams exited through fluid output conduit 32 and into fluid reservoir 34 containing approximately 100 ml of heptane. Approximately, the first third and last third of the mixture were discarded and only the central third collected in fluid reservoir 34. The final solution was sampled and the particle size was measured, in heptane, using a Horiba L950 particle size analyzer. The median particle size was about 1.3 microns. The Span was about 0.901.
Two grams of Carbamazepine was dissolved in 100 grams of ethanol. Two grams of Soy Lecithin was dissolved in 50 grams of THF. The two solutions were combined and heated to 60° C. The solution was added to the input hopper of a dual piston pump 241. The pump 241 was fed into fluid input conduit 121 of the crystallization chamber 22 through a 0.004″ opening 701 of a nozzle 581. Heptane, at 10° C. was fed into fluid input conduits 122, 123 and 124 through 0.006″, 0.007″ and 0.007″ openings 702, 703, and 704 of nozzles 582, 583, and 584 respectively by an identical piston pump 242. The pressure on both pumps 241 and 242 was adjusted to 1500 psi. The mixed streams exited through fluid output conduit 32 and into fluid reservoir 34 containing approximately 100 ml of heptane. Approximately, the first third and last third of the mixture were discarded and only the central third collected in fluid reservoir 34. The final solution was sampled and the particle size was measured, in heptane, using a Horiba L950 particle size analyzer. The median particle size was about 1.5 microns. The Span was about 0.916.
Two grams of Ketoprofen was dissolved in 100 grams of DMSO. Two grams of Sorbitan Monostearate was dissolved in 50 grams of THF. The two solutions were combined and heated to 60° C. The solution was added to the input hopper of a dual piston pump 241. The pump 241 was fed into fluid input conduits 121 of the crystallization chamber 22 through a 0.004″ opening 701 of a nozzle 581. DI water with 0.1% Polysorbate 20, at 5° C. was fed into fluid input conduits 122, 123 and 124 through 0.006″, 0.008″ and 0.008″ openings 702, 703, and 704 of nozzles 582, 583, and 584 respectively by an identical piston pump 242. The pressure on both pumps 241 and 242 was adjusted to 1500 psi. […]

Span (measured in DI water) | median particle size (measured in DI water) | Span (measured in heptane) | median particle size (measured in heptane) | Structure (SMILES)
about 1.078 | about 3.1 microns |  |  | CC(C(=O)O)c1cccc(C(=O)c2ccccc2)c1 (racemic) [Ketoprofen, (RS)-2-(3-benzoylphenyl)propanoic acid]
about 0.99 | about 126 nanometers |  |  | CC(C)c1c(C(=O)Nc2ccccc2)c(-c2ccccc2)c(-c2ccc(F)cc2)n1CC[C@@H](O)C[C@@H](O)CC(=O)O [Atorvastatin, (3R,5R)-7-[2-(4-fluorophenyl)-3-phenyl-4-(phenylcarbamoyl)-5-propan-2-ylpyrrol-1-yl]-3,5-dihydroxyheptanoic acid]
 |  | about 0.916 | about 1.5 microns | NC(=O)N1c2ccccc2C=Cc2ccccc21 [Carbamazepine, 5H-dibenzo[b,f]azepine-5-carboxamide]
 |  | about 0.901 | about 1.3 microns | CC(=O)Nc1ccc(O)cc1 [Paracetomol, N-(4-hydroxyphenyl)ethanamide]
